The text below walks through data of patent publication US9113629B2, “4-amino-6-(4-substituted-phenyl)-picolinates and 6-amino-2-(4-substituted-phenyl)-pyrimidine-4-carboxylates and their use as herbicides” (DOW AGROSCIENCES LLC, priority 2013, dated 2015).

Assay in all cases: Post-emergent Test I herbicidal activity
Common to all, as to format: in vivo

The subject of assay [1] is HELAN: sunflower (Helianthus annuus). The note with it: post-emergence, 336 h, read-out: Visual Growth Reduction (%) 14 Days After Application, HELAN; for pest or weed control at 4000 g/ha: 4 kg ai/ha; for pest or weed control at 3840 g/ha: 3.84 kg ai/ha. The protocol:
(§1) Post-emergent Test I Seeds test species were obtained from commercial suppliers and planted into a 13 cm diameter-round pot containing soil-less media mix (metro-mix 360®, Sun Gro Horticulture). Postemergence treatments were planted 8-12 days prior to application and cultured in a greenhouse equipped with supplemental light sources to provide a 16 h photoperiod at 24-29° C. All pots were surface irrigated.
(§2) A weighted amount, determined by the highest rate to be tested, of each compound was dissolved in 1.3 mL acetone-DMSO (97:3, v/v) and diluted with 4.1 mL water-isopropanol-crop oil concentrate (78:20:2, v/v/v) containing 0.02% Triton X-155 to obtain concentrated stock solutions. Additional application rates were obtained by serial dilution of the high rate solution into a solution containing appropriate volume of 97:3 v/v mixture of acetone and DMSO and appropriate volume of an aqueous mixture of water, isopropyl alcohol, crop oil concentrate (78:20:2, v/v/v) containing 0.02% Triton X-155.
(§3) Formulated compounds were applied using a DeVilbiss® compressed air sprayer at 2-4 psi. Following treatment, pots were returned to the greenhouse for the duration of the experiment. All pots were sub-irrigated as need to provide optimum growing conditions. All pots were fertilized one time per week by subirrigating with Peters Peat-Lite Special® fertilizer (20-10-20).
(§4) […] All evaluations were made visually on a scale of 0 to 100 where 0 represents no activity and 100 represents complete plant death. Visual assessments of plant injury were made based on growth reduction, discoloration, leaf deformity and necrosis.

In assay [2] the test system is IPOHE: ivyleaf morningglory (Ipomoea hederecea). The note with it: post-emergence, 336 h, read-out: Visual Growth Reduction (%) 14 Days After Application, IPOHE; for pest or weed control at 4000 g/ha: 4 kg ai/ha; for pest or weed control at 3840 g/ha: 3.84 kg ai/ha. The procedure:
as §1, §2, §3, §4

Assay [3] concerns AMARE: redroot pigwseed (Amaranthus retroflexus). Particulars: post-emergence, read-out: Visual Growth Reduction (%), AMARE; for pest or weed control at 4000 g/ha: 4 kg ai/ha; for pest or weed control at 3840 g/ha: 3.84 kg ai/ha. The procedure: as §1, §2, §3, §4
Assay [4] relates to AVEFA: wild oats (Avena fatua). Particulars: post-emergence, 336 h, read-out: Visual Growth Reduction (%) 14 Days After Application, AVEFA; for pest or weed control at 4000 g/ha: 4 kg ai/ha; for pest or weed control at 3840 g/ha: 3.84 kg ai/ha. The procedure:
as §1, §2, §3, §4

Assay [5] relates to SETFA: giant foxtail (Setaria faberi). Particulars: post-emergence, 336 h, read-out: Visual Growth Reduction (%) 14 Days After Application, SETFA; for pest or weed control at 4000 g/ha: 4 kg ai/ha; for pest or weed control at 3840 g/ha: 3.84 kg ai/ha. The procedure: as §1, §2, §3, §4
Assay [6] has as its system ECHCG: barnyardgrass (Echinochloa crus-galli). The note with it: post-emergence, 336 h, read-out: Visual Growth Reduction (%) 14 Days After Application, ECHCG; for pest or weed control at 4000 g/ha: 4 kg ai/ha; for pest or weed control at 3840 g/ha: 3.84 kg ai/ha. The protocol:
as §1, §2, §3, §4

Molecules are shown by their SMILES.

On to `COC(=O)c1nc(-c2ccc(Br)cc2)c(F)c(N)c1Cl` [Compound 138, Methyl 4-amino-6-(4-bromophenyl)-3-chloro-5-fluoropicolinate], for which the pest or weed control at 4000 g/ha is 95 to 100% in assay [1]; 95 to 100% in assay [2]; 95 to 100% in assay [3]; 75 to 84% in assay [4]; 95 to 100% in assay [5]; 95 to 100% in assay [6].

On to `COC(=O)c1nc(-c2ccc(C#N)cc2)c(F)c(N)c1Cl` [Compound 142], for which the pest or weed control at 3840 g/ha in assay [1] was 95 to 100%; in assay [2], 95 to 100%; in assay [3], 95 to 100%; in assay [4], 45 to 59%; in assay [5], 60 to 74%; in assay [6] it was 95 to 100%.

As to `Nc1c(F)c(-c2ccc(Br)c(F)c2F)nc(C(=O)O)c1Cl` [Compound 147], the pest or weed control at 3960 g/ha in assay [1] (3.96 kg ai/ha) lay within 95 to 100%; in assay [2] (3.96 kg ai/ha) it was 95 to 100%; in assay [3] (3.96 kg ai/ha), 95 to 100%; in assay [4] (3.96 kg ai/ha) it was 75 to 84%; in assay [5] (3.96 kg ai/ha), 95 to 100%; in assay [6] (3.96 kg ai/ha), 95 to 100%.

As to `N#Cc1ccc(-c2nc(C(=O)O)c(Cl)c(N)c2F)cc1F` [Compound 156], the pest or weed control at 4040 g/ha in assay [1] (4.04 kg ai/ha) lay within 95 to 100%; in assay [2] (4.04 kg ai/ha) it was 95 to 100%; in assay [3] (4.04 kg ai/ha) it was 95 to 100%; in assay [4] (4.04 kg ai/ha), 75 to 84%; in assay [5] (4.04 kg ai/ha), 85 to 94%; in assay [6] (4.04 kg ai/ha), 95 to 100%.

As to `COC(=O)c1nc(-c2ccccc2)c(F)c(N)c1Cl` [Compound 181], the pest or weed control at 1760 g/ha in assay [1] (1.76 kg ai/ha) is 95 to 100%; in assay [2] (1.76 kg ai/ha), 75 to 84%; in assay [3] (1.76 kg ai/ha) it was 95 to 100%; in assay [4] (1.76 kg ai/ha), 0 to 29%; in assay [5] (1.76 kg ai/ha), 0 to 29%; in assay [6] (1.76 kg ai/ha), 0 to 29%.

Consider `COC(=O)c1nc(-c2ccc(C(F)F)c(F)c2)cc(N)c1Cl` [Compound 196], for which the pest or weed control at 3840 g/ha was 95 to 100% in assay [1]; 85 to 94% in assay [2]; 95 to 100% in assay [3]; 60 to 74% in assay [4]; 95 to 100% in assay [5]; 95 to 100% in assay [6].

`COC(=O)c1nc(-c2ccc(C(F)F)cc2)c(F)c(N)c1Cl` [Compound 209]: the pest or weed control at 4000 g/ha in assay [1] was in the range of 95 to 100%; in assay [2] it was 85 to 94%; in assay [3], 95 to 100%; in assay [4], 85 to 94%; in assay [5], 95 to 100%; in assay [6] it was 95 to 100%.
